In the supplement of paper PMC10307832:

How the values were obtained:
Test in all cases: relative viability (nuclei count vs DMSO), 5 days (fraction); higher = more cells survive
SW 1573 = system: SW 1573
In short: (§1)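 Values are medians from duplicate plates. Each reflects relative viability, defined as the nuclei count of treated wells over that of vehicle wells. Lung cancer cell lines in 1536-well plates were pin-tool dosed one day after seeding with one drug alone or with a fixed anchor-drug dose plus five library-drug doses (not always all listed) in √10 steps, then fixed, stained and imaged at 4× after 5 days.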

NCI-H23 = system: NCI-H23
In short: as §1

LCLC-103H = system: LCLC-103H
In short: as §1

LU99A = system: LU99A
In short: as §1

A-427 = system: A-427
In short: as §1

PC-3 [JPC-3] = system: PC-3 [JPC-3]
In short: as §1

NCI-H1793 = system: NCI-H1793
In short: as §1

NCI-H727 = system: NCI-H727
In short: as §1

NCI-H1650 = system: NCI-H1650
In short: as §1

H3255 = system: H3255
In short: as §1

201T = system: 201T
In short: as §1

LK-2 = system: LK-2
In short: as §1

PC-14 = system: PC-14
In short: as §1

NCI-H838 = system: NCI-H838
In short: as §1

HCC-44 = system: HCC-44
In short: as §1

NCI-H2347 = system: NCI-H2347
In short: as §1

COR-L23 = system: COR-L23
In short: as §1

NCI-H1944 = system: NCI-H1944
In short: as §1

NCI-H460 = system: NCI-H460
In short: as §1

NCI-H650 = system: NCI-H650
In short: as §1

SW 900 = system: SW 900
In short: as §1

LCLC-97TM1 = system: LCLC-97TM1
In short: as §1

NCI-H1563 = system: NCI-H1563
In short: as §1

SMILES: NC(=O)Nc1cc(-c2cccc(F)c2)sc1C(=O)N[C@H]1CCCNC1 [AZD7762] + COc1cccc2cc(-c3nc([C@H]4CC[C@H](C(=O)O)CC4)n4ncnc(N)c34)[nH]c12 [OSI-027] (partner 0.5 µM)
- relative viability (SW 1573; first compound 0.01 µM): 0.69
- relative viability (SW 1573; first compound 0.03162 µM): 0.65
- relative viability (SW 1573; first compound 0.1 µM): 0.742
- relative viability (SW 1573; first compound 0.3162 µM): 0.422
- relative viability (SW 1573; first compound 1 µM): 0.176
- relative viability (NCI-H23; first compound 0.01 µM): 0.556
- relative viability (NCI-H23; first compound 0.03162 µM): 0.567
- relative viability (NCI-H23; first compound 0.1 µM): 0.652
- relative viability (NCI-H23; first compound 0.3162 µM): 0.566
- relative viability (NCI-H23; first compound 1 µM): 0.288
- relative viability (LCLC-103H; first compound 0.01 µM): 0.451
- relative viability (LCLC-103H; first compound 0.03162 µM): 0.471
- relative viability (LCLC-103H; first compound 0.1 µM): 0.427
- relative viability (LCLC-103H; first compound 0.3162 µM): 0.392
- relative viability (LCLC-103H; first compound 1 µM): 0.341
- relative viability (LU99A; first compound 0.01 µM): 0.323
- relative viability (LU99A; first compound 0.03162 µM): 0.365
- relative viability (LU99A; first compound 0.1 µM): 0.352
- relative viability (LU99A; first compound 0.3162 µM): 0.326
- relative viability (LU99A; first compound 1 µM): 0.217
- relative viability (A-427; first compound 0.01 µM): 0.484
- relative viability (A-427; first compound 0.03162 µM): 0.498
- relative viability (A-427; first compound 0.1 µM): 0.343
- relative viability (A-427; first compound 0.3162 µM): 0.353
- relative viability (A-427; first compound 1 µM): 0.224
- relative viability (PC-3 [JPC-3]; first compound 0.01 µM): 0.714
- relative viability (PC-3 [JPC-3]; first compound 0.03162 µM): 0.832
- relative viability (PC-3 [JPC-3]; first compound 0.1 µM): 0.858
- relative viability (PC-3 [JPC-3]; first compound 0.3162 µM): 0.751
- relative viability (PC-3 [JPC-3]; first compound 1 µM): 0.684
- relative viability (NCI-H1793; first compound 0.01 µM): 0.265
- relative viability (NCI-H1793; first compound 0.03162 µM): 0.268
- relative viability (NCI-H1793; first compound 0.1 µM): 0.308
- relative viability (NCI-H1793; first compound 0.3162 µM): 0.299
- relative viability (NCI-H1793; first compound 1 µM): 0.25
- relative viability (NCI-H727; first compound 0.01 µM): 0.649
- relative viability (NCI-H727; first compound 0.03162 µM): 0.791
- relative viability (NCI-H727; first compound 0.1 µM): 0.425
- relative viability (NCI-H727; first compound 0.3162 µM): 0.52
- relative viability (NCI-H727; first compound 1 µM): 0.358
- relative viability (NCI-H1650; first compound 0.01 µM): 0.688
- relative viability (NCI-H1650; first compound 0.03162 µM): 0.638
- relative viability (NCI-H1650; first compound 0.1 µM): 0.708
- relative viability (NCI-H1650; first compound 0.3162 µM): 0.425
- relative viability (NCI-H1650; first compound 1 µM): 0.206
- relative viability (H3255; first compound 0.01 µM): 0.572
- relative viability (H3255; first compound 0.03162 µM): 0.506
- relative viability (H3255; first compound 0.1 µM): 0.534
- relative viability (H3255; first compound 0.3162 µM): 0.629
- relative viability (H3255; first compound 1 µM): 0.607
- relative viability (201T; first compound 0.01 µM): 0.795
- relative viability (201T; first compound 0.03162 µM): 0.779
- relative viability (201T; first compound 0.1 µM): 0.703
- relative viability (201T; first compound 0.3162 µM): 0.423
- relative viability (201T; first compound 1 µM): 0.254
- relative viability (LK-2; first compound 0.01 µM): 0.192
- relative viability (LK-2; first compound 0.03162 µM): 0.228
- relative viability (LK-2; first compound 0.1 µM): 0.213
- relative viability (LK-2; first compound 0.3162 µM): 0.186
- relative viability (LK-2; first compound 1 µM): 0.165
- relative viability (PC-14; first compound 0.01 µM): 0.847
- relative viability (PC-14; first compound 0.03162 µM): 0.816
- relative viability (PC-14; first compound 0.1 µM): 0.734
- relative viability (PC-14; first compound 0.3162 µM): 0.287
- relative viability (PC-14; first compound 1 µM): 0.0799
- relative viability (NCI-H838; first compound 0.01 µM): 0.429
- relative viability (NCI-H838; first compound 0.03162 µM): 0.374
- relative viability (NCI-H838; first compound 0.1 µM): 0.415
- relative viability (NCI-H838; first compound 0.3162 µM): 0.413
- relative viability (NCI-H838; first compound 1 µM): 0.297
- relative viability (HCC-44; first compound 0.01 µM): 0.718
- relative viability (HCC-44; first compound 0.03162 µM): 0.579
- relative viability (HCC-44; first compound 0.1 µM): 0.712
- relative viability (HCC-44; first compound 0.3162 µM): 0.65
- relative viability (HCC-44; first compound 1 µM): 0.491
- relative viability (NCI-H2347; first compound 0.01 µM): 0.433
- relative viability (NCI-H2347; first compound 0.03162 µM): 0.529
- relative viability (NCI-H2347; first compound 0.1 µM): 0.412
- relative viability (NCI-H2347; first compound 0.3162 µM): 0.395
- relative viability (NCI-H2347; first compound 1 µM): 0.356
- relative viability (COR-L23; first compound 0.01 µM): 0.866
- relative viability (COR-L23; first compound 0.03162 µM): 0.866
- relative viability (COR-L23; first compound 0.1 µM): 0.758
- relative viability (COR-L23; first compound 0.3162 µM): 0.711
- relative viability (COR-L23; first compound 1 µM): 0.285
- relative viability (NCI-H1944; first compound 0.01 µM): 0.396
- relative viability (NCI-H1944; first compound 0.03162 µM): 0.467
- relative viability (NCI-H1944; first compound 0.1 µM): 0.53
- relative viability (NCI-H1944; first compound 0.3162 µM): 0.525
- relative viability (NCI-H1944; first compound 1 µM): 0.299
- relative viability (NCI-H460; first compound 0.01 µM): 0.861
- relative viability (NCI-H460; first compound 0.03162 µM): 0.751
- relative viability (NCI-H460; first compound 0.1 µM): 0.649
- relative viability (NCI-H460; first compound 0.3162 µM): 0.463
- relative viability (NCI-H460; first compound 1 µM): 0.0347
- relative viability (NCI-H650; first compound 0.01 µM): 0.549
- relative viability (NCI-H650; first compound 0.03162 µM): 0.542
- relative viability (NCI-H650; first compound 0.1 µM): 0.537
- relative viability (NCI-H650; first compound 0.3162 µM): 0.509
- relative viability (NCI-H650; first compound 1 µM): 0.614
- relative viability (SW 900; first compound 0.01 µM): 0.609
- relative viability (SW 900; first compound 0.03162 µM): 0.623
- relative viability (SW 900; first compound 0.1 µM): 0.539
- relative viability (SW 900; first compound 0.3162 µM): 0.501
- relative viability (SW 900; first compound 1 µM): 0.263
- relative viability (LCLC-97TM1; first compound 0.01 µM): 0.582
- relative viability (LCLC-97TM1; first compound 0.03162 µM): 0.577
- relative viability (LCLC-97TM1; first compound 0.1 µM): 0.511
- relative viability (LCLC-97TM1; first compound 0.3162 µM): 0.617
- relative viability (LCLC-97TM1; first compound 1 µM): 0.44
- relative viability (NCI-H1563; first compound 0.01 µM): 0.792
- relative viability (NCI-H1563; first compound 0.03162 µM): 0.781
- relative viability (NCI-H1563; first compound 0.1 µM): 0.748
- relative viability (NCI-H1563; first compound 0.3162 µM): 0.804
- relative viability (NCI-H1563; first compound 1 µM): 0.771
